Experimental data reported in ChEMBL document CHEMBL5365464, “Structure-Based Optimization of the Third Generation Type II Macrocycle TRK Inhibitors with Improved Activity against Solvent-Front, xDFG, and Gatekeeper Mutations” (J Med Chem, 2023).

Experiments:
BaF3 [1] = assay: Antiproliferative activity against mouse BaF3 cells harbouring CD74-NTRK1 fusion protein incubated for 3 days by CCK8 method; conditions: BaF3, 72 h
BaF3 [2] = assay: Antiproliferative activity against mouse BaF3 cells harbouring ETV6-TRKC G696C mutant incubated for 3 days by CCK8 method; conditions: BaF3, 72 h
BaF3 [3] = assay: Antiproliferative activity against mouse BaF3 cells harbouring ETV6-TRKB G709C mutant incubated for 3 days by CCK8 method; conditions: BaF3, 72 h
BaF3 [4] = assay: cells; conditions: Mus musculus, BaF3, 72 h
BaF3 [5] = assay: Antiproliferative activity against mouse BaF3 cells harbouring ETV6-TRKC V601M mutant incubated for 3 days by CCK8 method; conditions: BaF3, 72 h
BaF3 [6] = assay: Antiproliferative activity against mouse BaF3 cells harbouring ETV6-TRKC G696A mutant incubated for 3 days by CCK8 method; conditions: BaF3, 72 h
BaF3 [7] = assay: Antiproliferative activity against mouse BaF3 cells harbouring CD74-TRKA V573M mutant incubated for 3 days by CCK8 method; conditions: BaF3, 72 h
BaF3 [8] = assay: Antiproliferative activity against mouse BaF3 cells harbouring ETV6-TRKB F633L mutant incubated for 3 days by CCK8 method; conditions: BaF3, 72 h
BaF3 [9] = assay: Antiproliferative activity against mouse BaF3 cells harbouring ETV6-NTRK3 fusion protein incubated for 3 days by CCK8 method; conditions: BaF3, 72 h
BaF3 [10] = assay: Antiproliferative activity against mouse BaF3 cells harbouring ETV6-TRKC F617L mutant incubated for 3 days by CCK8 method; conditions: BaF3, 72 h
BaF3 [11] = assay: Antiproliferative activity against mouse BaF3 cells harbouring CD74-[…] mutant fusion protein incubated for 3 days by CCK8 method; assay type: functional, cell-based; conditions: BaF3, 72 h
BaF3 [12] = assay: cells; conditions: Mus musculus, BaF3, 72 h; remark: listed apart in the source
BaF3 [13] = assay: Antiproliferative activity against mouse BaF3 cells harbouring ETV6-TRKB V617M mutant incubated for 3 days by CCK8 method; conditions: BaF3, 72 h
BaF3 [14] = assay: Antiproliferative activity against mouse BaF3 cells harbouring ETV6-TRKB G639R mutant incubated for 3 days by CCK8 method; conditions: BaF3, 72 h
BaF3 [15] = assay: Antiproliferative activity against mouse BaF3 cells harbouring ETV6-TRKC G623E mutant incubated for 3 days by CCK8 method; conditions: BaF3, 72 h
BaF3 [16] = assay: Antiproliferative activity against mouse BaF3 cells incubated for 3 days by CCK8 method; conditions: BaF3, 72 h
BaF3 [17] = assay: Antiproliferative activity against mouse BaF3 cells harbouring ETV6-TRKC G6968 mutant incubated for 3 days by CCK8 method; conditions: BaF3, 72 h
BaF3 [18] = assay: cells; conditions: Mus musculus, BaF3, 72 h; remark: listed apart in the source
BaF3 [19] = assay: Antiproliferative activity against mouse BaF3 cells harbouring ETV6-TRKC G623R mutant incubated for 3 days by CCK8 method; conditions: BaF3, 72 h
BaF3 [20] = assay: Antiproliferative activity against mouse BaF3 cells harbouring CD74-TRKA G667A mutant incubated for 3 days by CCK8 method; conditions: BaF3, 72 h
BaF3 [21] = assay: Antiproliferative activity against mouse BaF3 cells harbouring CD74-TRKA G6678 mutant incubated for 3 days by CCK8 method; conditions: BaF3, 72 h
BaF3 [22] = assay: Antiproliferative activity against mouse BaF3 cells harbouring wild type ETV6-TRKB incubated for 3 days by CCK8 method; conditions: BaF3, 72 h
BaF3 [23] = assay: Antiproliferative activity against mouse BaF3 cells harbouring TRKA-F589L fusion protein incubated for 3 days by CCK8 method; conditions: BaF3, 72 h
[24] = target: Tyrosine-protein kinase HCK (Homo sapiens, UniProt P08631); assay: Inhibition of Hck (unknown origin)
[25] = target: Tyrosine-protein kinase Mer (Homo sapiens, UniProt Q12866); assay: Inhibition of Mer (unknown origin)
[26] = Toxicity in CB17-SCID mouse assessed as mortality at 50 mg/kg/day administered via oral gavage measured every 2 days for 12 days; assay type: organism-based; conditions: in vivo, 288 h, time 12 day
[27] = Half life in ICR mouse at 10 mg/kg, po measured upto 24 hrs by LC-MS/MS analysis; assay type: ADME, organism-based; conditions: in vivo
[28] = target: Receptor-type tyrosine-protein kinase FLT3 (Homo sapiens, UniProt P36888); assay: Inhibition of FLT3 (unknown origin)
Ephrin type-A receptor 7 = Ephrin type-A receptor 7 (Homo sapiens, UniProt Q15375); assay: Inhibition of EphA7 (unknown origin)
[29] = Oral bioavailability in ICR mouse at 10 mg/kg measured upto 24 hrs by LC-MS/MS analysis; assay type: ADME, organism-based; conditions: in vivo
[30] = target: Vascular endothelial growth factor receptor 2 (Homo sapiens, UniProt P35968); assay: Inhibition of KDR (unknown origin)
[31] = target: Muscle, skeletal receptor tyrosine-protein kinase (Homo sapiens, UniProt O15146); assay: Inhibition of Musk (unknown origin)
[32] = Cmax in ICR mouse at 10 mg/kg, po measured upto 24 hrs by LC-MS/MS analysis; assay type: ADME, organism-based; design: dose 10 mg/kg, time < 24 hrs, route po; conditions: in vivo
[33] = target: Vascular endothelial growth factor receptor 3 (Homo sapiens, UniProt P35916); assay: Inhibition of FLT4 (unknown origin)
Ephrin type-A receptor 5 = Ephrin type-A receptor 5 (Homo sapiens, UniProt P54756); assay: Inhibition of EphA5 (unknown origin)
[34] = Half life in ICR mouse at 2.0 mg/kg, iv measured upto 24 hrs by LC-MS/MS analysis; assay type: ADME, organism-based; conditions: in vivo
[35] = Toxicity in CB17-SCID mouse assessed as effect on body weight loss at 50 mg/kg/day administered via oral gavage measured every 2 days for 12 days; assay type: organism-based; conditions: in vivo, 288 h, time 12 day
[36] = Tmax in ICR mouse at 2.0 mg/kg, iv measured upto 24 hrs by LC-MS/MS analysis; assay type: ADME, organism-based; conditions: in vivo
[37] = AUC (0 to infinity) in ICR mouse at 10 mg/kg, po measured upto 24 hrs by LC-MS/MS analysis; assay type: ADME, organism-based; design: dose 10 mg/kg, time < 24 hrs, route po; conditions: in vivo
[38] = target: Proto-oncogene tyrosine-protein kinase receptor Ret (Homo sapiens, UniProt P07949); assay: Inhibition of RET (unknown origin)
Angiopoietin-1 receptor = Angiopoietin-1 receptor (Homo sapiens, UniProt Q02763); assay: Inhibition of Tie2 (unknown origin)
[39] = target: Tyrosine-protein kinase receptor UFO (Homo sapiens, UniProt P30530); assay: Inhibition of Axl (unknown origin)
Ephrin type-A receptor 2 = Ephrin type-A receptor 2 (Homo sapiens, UniProt P29317); assay: Inhibition of EphA2 (unknown origin)
[40] = target: Ribosomal protein S6 kinase; assay: Inhibition of P70S6K (unknown origin); assay type: protein assay, Homo sapiens
[41] = Tmax in ICR mouse at 10 mg/kg, po measured upto 24 hrs by LC-MS/MS analysis; assay type: ADME, organism-based; conditions: in vivo
[42] = Toxicity in CB17-SCID mouse assessed as drug tolerance at 50 mg/kg/day administered via oral gavage measured every 2 days for 12 days; assay type: organism-based; conditions: in vivo, 288 h, time 12 day
[43] = Clearance in ICR mouse at 2.0 mg/kg, iv measured upto 24 hrs by LC-MS/MS analysis; assay type: ADME, organism-based; conditions: in vivo
[44] = AUC (0 to t) in ICR mouse at 2.0 mg/kg, iv measured upto 24 hrs by LC-MS/MS analysis; assay type: ADME, organism-based; design: time < 24 hrs, dose 2 mg/kg, route iv; conditions: in vivo
[45] = Cmax in ICR mouse at 2.0 mg/kg, iv measured upto 24 hrs by LC-MS/MS analysis; assay type: ADME, organism-based; design: dose 2 mg/kg, time < 24 hrs, route iv; conditions: in vivo
[46] = AUC (0 to t) in ICR mouse at 10 mg/kg, po measured upto 24 hrs by LC-MS/MS analysis; assay type: ADME, organism-based; design: time < 24 hrs, dose 10 mg/kg, route po; conditions: in vivo
[47] = AUC (0 to infinity) in ICR mouse at 2.0 mg/kg, iv measured upto 24 hrs by LC-MS/MS analysis; assay type: ADME, organism-based; design: dose 2 mg/kg, time < 24 hrs, route iv; conditions: in vivo
[48] = target: Epithelial discoidin domain-containing receptor 1 (Homo sapiens, UniProt Q08345); assay: Inhibition of DDR1 (unknown origin)
[49] = target: Cyclin-dependent kinase 14 (Homo sapiens, UniProt O94921); assay: Inhibition of CDK14 (unknown origin)
Sequence of Cyclin-dependent kinase 14 (O94921 whole entry): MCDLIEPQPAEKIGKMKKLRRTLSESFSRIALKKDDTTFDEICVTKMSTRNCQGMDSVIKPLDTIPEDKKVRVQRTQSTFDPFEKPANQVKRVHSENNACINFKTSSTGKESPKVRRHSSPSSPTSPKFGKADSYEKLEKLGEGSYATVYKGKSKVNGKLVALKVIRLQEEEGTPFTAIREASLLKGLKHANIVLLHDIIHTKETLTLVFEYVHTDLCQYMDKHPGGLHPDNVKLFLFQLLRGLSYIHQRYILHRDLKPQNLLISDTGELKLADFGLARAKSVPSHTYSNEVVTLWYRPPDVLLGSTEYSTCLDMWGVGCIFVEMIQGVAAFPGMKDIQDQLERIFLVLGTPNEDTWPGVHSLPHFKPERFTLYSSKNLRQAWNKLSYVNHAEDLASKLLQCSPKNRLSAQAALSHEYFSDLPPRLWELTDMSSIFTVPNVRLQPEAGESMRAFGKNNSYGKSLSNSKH

Sequence of Tyrosine-protein kinase Mer (Q12866 whole entry): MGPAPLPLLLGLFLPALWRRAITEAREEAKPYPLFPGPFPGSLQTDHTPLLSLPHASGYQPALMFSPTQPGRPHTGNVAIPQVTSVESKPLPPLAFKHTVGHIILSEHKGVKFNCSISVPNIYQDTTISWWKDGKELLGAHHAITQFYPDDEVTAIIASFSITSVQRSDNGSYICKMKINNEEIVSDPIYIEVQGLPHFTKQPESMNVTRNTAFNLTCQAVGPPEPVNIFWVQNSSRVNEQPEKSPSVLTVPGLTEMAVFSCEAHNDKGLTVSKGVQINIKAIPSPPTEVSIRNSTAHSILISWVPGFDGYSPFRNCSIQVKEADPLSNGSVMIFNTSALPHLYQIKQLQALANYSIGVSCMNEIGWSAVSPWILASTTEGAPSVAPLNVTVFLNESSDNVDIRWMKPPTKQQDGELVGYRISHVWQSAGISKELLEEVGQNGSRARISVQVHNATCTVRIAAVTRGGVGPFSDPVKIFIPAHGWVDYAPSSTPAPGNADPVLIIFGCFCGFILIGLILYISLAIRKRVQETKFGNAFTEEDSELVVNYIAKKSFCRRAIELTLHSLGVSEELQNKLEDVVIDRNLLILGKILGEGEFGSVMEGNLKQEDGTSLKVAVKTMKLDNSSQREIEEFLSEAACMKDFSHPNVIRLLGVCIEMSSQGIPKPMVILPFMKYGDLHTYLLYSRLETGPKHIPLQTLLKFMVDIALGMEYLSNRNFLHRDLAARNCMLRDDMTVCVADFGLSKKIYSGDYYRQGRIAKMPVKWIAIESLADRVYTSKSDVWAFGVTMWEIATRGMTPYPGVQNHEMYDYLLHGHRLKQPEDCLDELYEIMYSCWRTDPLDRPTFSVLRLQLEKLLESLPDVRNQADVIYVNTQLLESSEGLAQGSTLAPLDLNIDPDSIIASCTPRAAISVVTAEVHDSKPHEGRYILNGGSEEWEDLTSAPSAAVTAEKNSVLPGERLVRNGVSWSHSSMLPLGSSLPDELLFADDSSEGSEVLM
Sequence of Ephrin type-A receptor 5 (P54756 whole entry): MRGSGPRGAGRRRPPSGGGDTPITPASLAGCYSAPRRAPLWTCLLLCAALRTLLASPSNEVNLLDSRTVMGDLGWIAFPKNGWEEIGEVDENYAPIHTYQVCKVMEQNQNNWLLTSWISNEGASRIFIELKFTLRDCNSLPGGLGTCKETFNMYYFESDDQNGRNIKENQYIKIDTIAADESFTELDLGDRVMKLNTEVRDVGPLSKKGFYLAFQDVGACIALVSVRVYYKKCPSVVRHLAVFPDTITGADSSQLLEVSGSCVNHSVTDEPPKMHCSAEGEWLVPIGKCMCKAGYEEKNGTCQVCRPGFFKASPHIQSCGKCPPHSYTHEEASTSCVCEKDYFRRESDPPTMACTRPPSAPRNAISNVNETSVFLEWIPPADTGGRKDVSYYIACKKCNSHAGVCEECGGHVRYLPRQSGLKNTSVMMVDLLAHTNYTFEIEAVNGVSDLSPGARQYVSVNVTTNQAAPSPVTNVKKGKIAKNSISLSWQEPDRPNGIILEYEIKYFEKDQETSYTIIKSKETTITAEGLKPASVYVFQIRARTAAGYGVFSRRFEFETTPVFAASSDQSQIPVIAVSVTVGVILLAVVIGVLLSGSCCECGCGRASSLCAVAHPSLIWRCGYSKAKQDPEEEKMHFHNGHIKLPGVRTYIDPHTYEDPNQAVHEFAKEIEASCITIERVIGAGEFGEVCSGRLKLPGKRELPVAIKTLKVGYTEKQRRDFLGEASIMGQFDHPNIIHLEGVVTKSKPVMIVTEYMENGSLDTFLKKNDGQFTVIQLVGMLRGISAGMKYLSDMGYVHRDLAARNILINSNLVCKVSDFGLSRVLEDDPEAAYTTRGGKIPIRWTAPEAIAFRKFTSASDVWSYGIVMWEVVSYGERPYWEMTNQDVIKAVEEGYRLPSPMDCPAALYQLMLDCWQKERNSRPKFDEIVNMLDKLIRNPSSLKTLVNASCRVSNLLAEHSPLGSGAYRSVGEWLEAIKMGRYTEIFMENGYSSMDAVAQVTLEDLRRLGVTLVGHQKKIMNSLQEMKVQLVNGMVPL
Sequence of Tyrosine-protein kinase HCK (P08631 whole entry): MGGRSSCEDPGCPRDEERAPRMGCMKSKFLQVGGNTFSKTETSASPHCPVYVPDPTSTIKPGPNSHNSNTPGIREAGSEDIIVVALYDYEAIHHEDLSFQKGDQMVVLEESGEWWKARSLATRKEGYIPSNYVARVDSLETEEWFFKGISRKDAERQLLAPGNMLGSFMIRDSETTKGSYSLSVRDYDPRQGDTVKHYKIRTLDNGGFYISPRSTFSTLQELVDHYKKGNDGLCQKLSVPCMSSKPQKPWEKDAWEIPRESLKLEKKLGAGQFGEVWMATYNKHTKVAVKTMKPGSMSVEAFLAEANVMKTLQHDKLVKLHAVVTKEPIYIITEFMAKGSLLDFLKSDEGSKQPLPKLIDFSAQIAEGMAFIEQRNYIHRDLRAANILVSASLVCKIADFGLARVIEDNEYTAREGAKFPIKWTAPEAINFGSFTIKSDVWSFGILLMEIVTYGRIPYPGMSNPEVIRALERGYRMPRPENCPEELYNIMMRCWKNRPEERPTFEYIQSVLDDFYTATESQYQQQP
Sequence of Muscle, skeletal receptor tyrosine-protein kinase (O15146 whole entry): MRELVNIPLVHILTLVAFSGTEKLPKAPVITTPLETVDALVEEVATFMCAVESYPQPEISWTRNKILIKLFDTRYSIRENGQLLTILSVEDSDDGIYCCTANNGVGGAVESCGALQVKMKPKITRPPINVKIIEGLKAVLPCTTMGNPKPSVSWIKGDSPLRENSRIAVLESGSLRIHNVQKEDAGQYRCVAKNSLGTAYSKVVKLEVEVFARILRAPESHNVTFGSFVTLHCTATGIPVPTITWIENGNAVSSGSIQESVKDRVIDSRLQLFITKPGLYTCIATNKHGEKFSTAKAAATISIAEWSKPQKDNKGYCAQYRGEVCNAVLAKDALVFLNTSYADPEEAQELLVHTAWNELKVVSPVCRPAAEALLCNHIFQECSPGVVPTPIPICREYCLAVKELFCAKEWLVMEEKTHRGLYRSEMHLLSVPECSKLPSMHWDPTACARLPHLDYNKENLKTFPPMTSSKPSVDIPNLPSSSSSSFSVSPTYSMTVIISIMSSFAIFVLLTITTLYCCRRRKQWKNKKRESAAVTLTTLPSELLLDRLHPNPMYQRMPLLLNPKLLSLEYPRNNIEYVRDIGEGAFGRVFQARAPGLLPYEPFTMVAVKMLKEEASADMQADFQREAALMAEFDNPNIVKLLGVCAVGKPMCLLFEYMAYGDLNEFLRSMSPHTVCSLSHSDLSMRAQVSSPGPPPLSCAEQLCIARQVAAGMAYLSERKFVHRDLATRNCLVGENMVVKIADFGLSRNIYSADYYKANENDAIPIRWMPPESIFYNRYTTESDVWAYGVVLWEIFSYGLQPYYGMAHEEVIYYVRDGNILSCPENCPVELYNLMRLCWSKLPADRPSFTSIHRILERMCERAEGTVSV
Sequence of Ephrin type-A receptor 2 (P29317 whole entry): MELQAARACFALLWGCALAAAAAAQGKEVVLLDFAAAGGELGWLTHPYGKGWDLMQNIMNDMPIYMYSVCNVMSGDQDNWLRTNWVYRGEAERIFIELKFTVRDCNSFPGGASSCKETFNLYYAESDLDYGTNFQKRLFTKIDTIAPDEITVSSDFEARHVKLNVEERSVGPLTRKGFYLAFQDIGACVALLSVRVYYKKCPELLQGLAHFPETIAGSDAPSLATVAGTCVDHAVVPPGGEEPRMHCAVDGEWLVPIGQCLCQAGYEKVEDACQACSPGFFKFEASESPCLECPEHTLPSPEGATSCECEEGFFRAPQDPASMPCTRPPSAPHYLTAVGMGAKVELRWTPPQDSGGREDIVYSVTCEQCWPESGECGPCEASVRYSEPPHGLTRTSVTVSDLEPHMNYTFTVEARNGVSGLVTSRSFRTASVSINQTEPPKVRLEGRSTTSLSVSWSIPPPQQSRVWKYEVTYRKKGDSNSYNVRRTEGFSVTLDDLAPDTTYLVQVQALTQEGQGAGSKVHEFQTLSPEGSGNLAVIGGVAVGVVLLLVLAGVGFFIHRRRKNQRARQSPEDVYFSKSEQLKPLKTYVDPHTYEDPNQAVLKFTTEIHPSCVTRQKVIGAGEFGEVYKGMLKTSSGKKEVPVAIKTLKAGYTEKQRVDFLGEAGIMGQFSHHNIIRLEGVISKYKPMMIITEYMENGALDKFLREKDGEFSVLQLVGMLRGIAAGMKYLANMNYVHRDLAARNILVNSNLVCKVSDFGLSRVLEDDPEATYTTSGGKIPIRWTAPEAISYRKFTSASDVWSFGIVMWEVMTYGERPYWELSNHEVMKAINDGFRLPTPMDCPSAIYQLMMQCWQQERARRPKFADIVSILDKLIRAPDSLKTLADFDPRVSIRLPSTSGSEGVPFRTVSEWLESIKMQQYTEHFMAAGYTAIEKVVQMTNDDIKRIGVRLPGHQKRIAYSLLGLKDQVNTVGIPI

Q: What does the source list for `C[C@H]1CNC(=O)c2cnn3ccc(nc23)N[C@H](C)c2cc(F)ccc2O1` [REPOTRECTINIB]?
A: IC50 (BaF3 [1]): 1.39 nM; IC50 (BaF3 [2]): 17 nM; IC50 (BaF3 [3]): 9.44 nM; IC50 (BaF3 [4]): 15.7 nM; IC50 (BaF3 [5]): 23.1 nM; IC50 (BaF3 [6]): 1.14 nM; IC50 (BaF3 [7]): 12.3 nM; IC50 (BaF3 [8]): 2.15 nM; IC50 (BaF3 [9]): 1.9 nM; IC50 (BaF3 [10]): 0.98 nM; IC50 (BaF3 [11]): 3.32 nM; IC50 (BaF3 [12]): 159 nM; IC50 (BaF3 [13]): 10.8 nM; IC50 (BaF3 [14]): 19.3 nM; IC50 (BaF3 [15]): 5.4 nM; IC50 (BaF3 [16]): 892 nM; IC50 (BaF3 [17]): 4.59 nM; IC50 (BaF3 [18]): 78.3 nM; IC50 (BaF3 [19]): 5.75 nM; IC50 (BaF3 [20]): 0.88 nM; IC50 (BaF3 [21]): 8.12 nM; IC50 (BaF3 [22]): 0.66 nM; IC50 (BaF3 [23]): 1.61 nM

Q: What does the source list for `Cc1c2cc(cc1C(=O)Nc1cc(CN3CCN(C)CC3)cc(C3CC3)c1)OCCCCCCCNC(=O)c1ccc3ncc(n3n1)C#C2`?
A: IC50 [24]: 253 nM; IC50 [25]: 25.9 nM; Activity [26]: Non-Toxic; half-life [27]: 4.3 h; IC50 [28]: 11.6 nM; IC50 (Ephrin type-A receptor 7): 1.77 nM; bioavailability [29]: 11%; IC50 [30]: 73.6 nM; IC50 [31]: 12.8 nM; Cmax [32]: 95.2 ng/mL; IC50 [33]: 59.4 nM; IC50 (Ephrin type-A receptor 5): 23 nM; half-life [34]: 1.92 h; Activity [35]: Non-Toxic; Tmax [36]: 4.8 min; AUC(0-inf) [37]: 707 ng·h/mL; IC50 [38]: 7.48 nM; IC50 (Angiopoietin-1 receptor): 66.3 nM; IC50 [39]: 1550 nM; IC50 (Ephrin type-A receptor 2): 12.8 nM; IC50 [40]: 66.82 nM; Tmax [41]: 2.17 h; Activity [42]: Non-Toxic; clearance [43]: 26.7 mL/min/kg; AUC(0-t) at 24 h [44]: 1200 ng·h/mL; Cmax [45]: 626 ng/mL; AUC(0-t) at 24 h [46]: 501 ng·h/mL; AUC(0-inf) [47]: 1280 ng·h/mL; IC50 [48]: 23.8 nM; IC50 [49]: 155 nM
